Data from patent US10369185B2, “Methods and compositions for enhancement of ability to concentrate” (KYOWA HAKKO BIO CO., LTD., priority 2014, dated 2019).
Entries after “also recorded” stand apart in the source; their conditions may differ. Peptide text beside a SMILES is read from it.

Test system: male runners
Assay: Dynavision D2 MODE A reaction test (hits and time per hit in 60 s)
Format: in vivo, human
Parameters: Mode A Avg Δ (average time per hit), group mean: unit not given here
Details: for Mode A Avg Δ (average time per hit), group mean / Mode A Hits Δ, group mean: Post-Pre
Experimental: The testing protocol is depicted in FIG. 1. Data collection occurred on four separate occasions. Each session required participants to perform a 60-min run at 75% of their previously measured VO2max. Following this run, all participants performed a run at 90% of their VO2max until volitional exhaustion. All participants performed their first trial (DHY) without any rehydration. During this session the total weight lost during the trial was determined. The fluid loss that occurred during this session was then used to determine the participant's swear rate (L·hr^−1). To continue in the study, participant's sweat rate was or exceeded 1.3 L·hr^−1. During the next three trails participants were provided 250 ml of fluid every 15 minutes in equal amounts. During one of the trials participants consumed only a flavored sports drink (ELECT only), while during the other trials participants consumed the alanine-glutamine supplement (Sustamine™) mixed in the same flavored sports drink at either a low (LD: 300 mg per 500 ml) or high (HD: 1 g per 500 ml) dose. Measurement of upper body reaction time was performed on the Dynavision D2 Visuomotor Training Device (D2; Dynavision International LLC, West Chester, Ohio). The D2 is a light training reaction device, developed to train sensory motor integration through the visual system. It consists of a board (4 foot×4 foot) that can be raised or lowered relative to the height of the operator. It contains 64 target buttons arranged into five concentric circles surrounding a center screen that can be illuminated to serve as a stimulus for the participant. Participants were required to assume a comfortable athletic stance and stand at a distance from the board where they could easily reach all of the lights. The board height was adjusted so the LCD screen was located just below eye level. A total of three different reaction tests were conducted. Participants were instructed to fixate their gaze on the LCD screen in the middle of the board and to keep their focus there for the entirety of the experiment. The second assessment (MODE A) measured the participant's ability to react to a stimulus as it changed positions on the board. An initial stimulus will present on the D2 in a 6 random location. The stimulus remained lit until it was struck by the participant. The stimulus then appeared at another random location. The participant was instructed to identify and strike as many stimuli as possible within 60 s. The number of hits and the average time per hits were recorded for each participant. Additionally, to make inferences on true effects of the different trials on reaction performance, an analysis based on the magnitude of differences, calculated from 90% confidence intervals, as previously described by Batterham and Hopkins (2005), was used in this study. Differences in Post-Pre performance (Δresponse) between trials were analyzed via a published spreadsheet (Hopkins 2007), with the smallest non-trivial change set at 20% of the grand standard deviation (Batterham and Hopkins 2005). All data are expressed as a mean effect±SD, with percent chances of a beneficial, trivial or negative outcome. Qualitative inferences, based on quantitative chances were assessed as: <1% almost certainly not, 1-5% very unlikely, 5-25% unlikely, 25-75% possibly, 75-95% likely, 95-99% very likely and >99% almost certainly (Hopkins 2002).

## C[C@H](N)C(=O)N[C@@H](CCC(N)=O)C(=O)O [L-Alanyl-L-Glutamine] (H-Ala-Gln-OH)
Dehydration vs High Dose
  Mode A Avg Δ, Interpretation: Possibly
  Mode A Avg Δ, Mean Difference: 0.025
  Mode A Avg Δ, Percent Negative: 2.83%
  Mode A Avg Δ, Percent Positive: 69.46%
  Mode A Avg Δ, Percent Trivial: 27.71%
  Mode A Hits Δ, Interpretation: possible negative effect; also recorded: Possibly
  Mode A Hits Δ, Mean Difference: −2.9
  Mode A Hits Δ, Percent Negative: 70.21%
  Mode A Hits Δ, Percent Positive: 2.09%
  Mode A Hits Δ, Percent Trivial: 27.70%
Dehydration vs Low Dose
  Mode A Avg Δ, Interpretation: Possibly
  Mode A Avg Δ, Mean Difference: 0.02
  Mode A Avg Δ, Percent Negative: 2.61%
  Mode A Avg Δ, Percent Positive: 61.93%
  Mode A Avg Δ, Percent Trivial: 35.45%
  Mode A Hits Δ, Interpretation: possible negative effect; also recorded: Possibly
  Mode A Hits Δ, Mean Difference: −2.2
  Mode A Hits Δ, Percent Negative: 57.68%
  Mode A Hits Δ, Percent Positive: 3.88%
  Mode A Hits Δ, Percent Trivial: 38.43%
Gatorade vs High Dose
  Mode A Avg Δ, Interpretation: Possibly
  Mode A Avg Δ, Mean Difference: 0.023
  Mode A Avg Δ, Percent Negative: 2.17%
  Mode A Avg Δ, Percent Positive: 67.69%
  Mode A Avg Δ, Percent Trivial: 30.14%
  Mode A Hits Δ, Interpretation: possibly negative
  Mode A Hits Δ, Mean Difference: 2.7
  Mode A Hits Δ, Percent Negative: 65.88%
  Mode A Hits Δ, Percent Positive: 2.87%
  Mode A Hits Δ, Percent Trivial: 31.25%
HD and LD compared to DHY and ELECT only
  speed per hit, MODE A: not statistically different
HD and LD compared to DHY and ELECT only, not statistically significant
  improvements of successful hits, MODE A: 3-4 fold
High Dose (1 g per 500 ml)
  Mode A Avg Δ (average time per hit), group mean: −0.028
  Mode A Hits Δ, group mean: 3.67
Low Dose (300 mg per 500 ml)
  Mode A Avg Δ (average time per hit), group mean: −0.023
  Mode A Hits Δ, group mean: 2.92
Low Dose vs Gatorade
  Mode A Avg Δ, Interpretation: Unclear
  Mode A Avg Δ, Mean Difference: −0.018
  Mode A Avg Δ, Percent Negative: 50.55%
  Mode A Avg Δ, Percent Positive: 44.41%
  Mode A Avg Δ, Percent Trivial: 5.04%
  Mode A Hits Δ, Interpretation: Unclear
  Mode A Hits Δ, Mean Difference: 1.9
  Mode A Hits Δ, Percent Negative: 42.26%
  Mode A Hits Δ, Percent Positive: 50.35%
  Mode A Hits Δ, Percent Trivial: 7.39%
Low Dose vs High Dose
  Mode A Avg Δ, Interpretation: Very Likely
  Mode A Avg Δ, Mean Difference: 0.005
  Mode A Avg Δ, Percent Negative: 0.02%
  Mode A Avg Δ, Percent Positive: 2.51%
  Mode A Avg Δ, Percent Trivial: 97.47%
  Mode A Hits Δ, Interpretation: Likely
  Mode A Hits Δ, Mean Difference: −0.75
  Mode A Hits Δ, Percent Negative: 9.11%
  Mode A Hits Δ, Percent Positive: 0.11%
  Mode A Hits Δ, Percent Trivial: 90.77%
